Results from patent publication US8278090B1, “Heterotrophic cultivation of hydrocarbon-producing microalgae” (Solazyme, Inc., priority 2008, dated 2012).
Values joined by “and” are separate entries in the source; they are usually repeats but may differ in a detail not shown here. Equal entries are not always repeated.

Key:
Format in all cases: cell-based
[1] = test system: Botryococcus braunii UTEX 2441; experiment: Complex nitrogen sources on heterotrophic growth with glucose; conditions: UTEX 2441, 1% glucose + 10 mM Urea, dark, 4 weeks
Protocol: (§1) The following experiment was done with UTEX 572, UTEX 2441, and N-836 in 20 ml of BG11 plus:
(§2) 1% glucose+2 g/L hydrolyzed casein

[2] = test system: Botryococcus braunii UTEX 572; experiment: as above; conditions: dark, 4 weeks
Protocol: as §1, §2

[3] = test system: Botryococcus braunii UTEX 2441; experiment: Different fixed carbon sources on heterotrophic growth, visual score; design: key to heterotrophic growth score, 0.1% / heterotrophic growth score, 0.5% / heterotrophic growth score, 1%: Growth was scored with +'s by visual examination of the cultures; ++: Growth was scored with +'s by visual examination of the cultures; +++: Growth was scored with +'s by visual examination of the cultures; ++++: Growth was scored with +'s by visual examination of the cultures; +++++: Growth was scored with +'s by visual examination of the cultures; conditions: for heterotrophic growth score, 0.1%: UTEX 2441, 0.1% carbon source in 1 ml BG11, dark; for heterotrophic growth score, 0.1% / heterotrophic growth score, 0.5% / heterotrophic growth score, 1%: 4 weeks; for heterotrophic growth score, 0.5%: UTEX 2441, 0.5% carbon source in 1 ml BG11, dark; for heterotrophic growth score, 1%: UTEX 2441, 1% carbon source in 1 ml BG11, dark; for heterotrophic growth on carbon source, in words: UTEX 2441, dark
Protocol: (§3) All carbon sources were tested at three different concentrations; 0.1%, 0.5% and 1%. Cultures were grown in 24 well plates for 4 weeks in the dark in 1 ml BG11 plus fixed carbon. Control cultures were grown in BG-11 media under phototrophic conditions without a fixed carbon source. Growth was scored with +'s by visual examination of the cultures (see Table 7). UTEX 572 grew best in glucose, however there was also growth on mannose, galactose and fructose. UTEX 2441 preferred mannose in the dark but there was some growth in galactose, fructose and glycerol.

[4] = test system: Botryococcus braunii N-836; experiment: as above; design: key to heterotrophic growth score, 0.1% / heterotrophic growth score, 0.5% / heterotrophic growth score, 1%: Growth was scored with +'s by visual examination of the cultures; ++: Growth was scored with +'s by visual examination of the cultures; +++: Growth was scored with +'s by visual examination of the cultures; ++++: Growth was scored with +'s by visual examination of the cultures; +++++: Growth was scored with +'s by visual examination of the cultures; conditions: for heterotrophic growth score, 0.1%: N-836, 0.1% carbon source in 1 ml BG11, dark; for heterotrophic growth score, 0.1% / heterotrophic growth score, 0.5% / heterotrophic growth score, 1%: 4 weeks; for heterotrophic growth score, 0.5%: N-836, 0.5% carbon source in 1 ml BG11, dark; for heterotrophic growth score, 1%: N-836, 1% carbon source in 1 ml BG11, dark; for heterotrophic growth on carbon source, in words: N-836, dark
Protocol: as §3

[5] = test system: Botryococcus braunii UTEX 572; experiment: as above; design: key to heterotrophic growth score, 0.1% / heterotrophic growth score, 0.5% / heterotrophic growth score, 1%: Growth was scored with +'s by visual examination of the cultures; ++: Growth was scored with +'s by visual examination of the cultures; +++: Growth was scored with +'s by visual examination of the cultures; ++++: Growth was scored with +'s by visual examination of the cultures; +++++: Growth was scored with +'s by visual examination of the cultures; conditions: for heterotrophic growth score, 0.1%: UTEX 572, 0.1% carbon source in 1 ml BG11, dark; for heterotrophic growth score, 0.1% / heterotrophic growth score, 0.5% / heterotrophic growth score, 1%: 4 weeks; for heterotrophic growth score, 0.5%: UTEX 572, 0.5% carbon source in 1 ml BG11, dark; for heterotrophic growth score, 1%: UTEX 572, 1% carbon source in 1 ml BG11, dark; for heterotrophic growth on carbon source, in words: UTEX 572, dark
Protocol: as §3

[6] = test system: Botryococcus braunii UTEX 2441; experiment: Mixotrophic growth with fixed carbon source in BG11 media in light; conditions: for DCW / DCW mg/15 ml.: three weeks
Protocol: (§4) Modified BG-11 (17.65 mM NaNO3, 0.23 mM K2PO4, 0.3 mM MgSO4.7H2O, 0.25 mM CaCl2.2H2O, 0.189 mM Na2CO3, 0.03 mM citric acid monohydrate, 0.023 mM ferric ammonium citrate, 0.046 mM H3BO3, 9.15 μM MnCl2.4H2O, 0.77 μM ZnSO4.7H2O, 0.32 μM CuSO4.5H2O, 0.21 μM CoCl2.6H2O, 1.62 μM NaMoO4.2H2O, 2.69 μM Na2EDTA, 9 mg/l Tricine, 1.99 μM Thiamine-HCl, 0.006 μM Cyanocobalamine, 0.044 μM Calcium Pantothenate, 0.29 μM p-aminobenzoic acid, soil water). […] Dry cell weight (DCW) were measured after three weeks for the glycerol samples.

[7] = test system: Botryococcus braunii UTEX 572; experiment: as above; conditions: for DCW / DCW mg/15 ml.: three weeks
Protocol: as §4

[8] = UTEX 572, 1% glucose + 10 mM Urea
[9] = UTEX 2441, 0.75% glycerol in BG11, light
[10] = UTEX 2441, 1% glycerol in BG11, light
[11] = UTEX 2441, 1.5% glycerol in BG11, light
[12] = UTEX 572, 0.75% glycerol in BG11, light
[13] = UTEX 572, 1% glycerol in BG11, light
[14] = UTEX 572, 1.5% glycerol in BG11, light

Row | SMILES | heterotrophic growth score, 0.1% [3] | heterotrophic growth score, 0.5% [3] | heterotrophic growth score, 1% [3] | heterotrophic growth score, 0.1% [4] | heterotrophic growth score, 0.5% [4] | heterotrophic growth score, 1% [4] | heterotrophic growth score, 0.1% [5] | heterotrophic growth score, 0.5% [5] | heterotrophic growth score, 1% [5] | heterotrophic growth on carbon source, in words [3] | heterotrophic growth on carbon source, in words [4] | heterotrophic growth on carbon source, in words [5] | further results
1 | NC(N)=O [Urea, urea] | – | – | – | – | – | – | – | – | – | – | – | – | DCW [1]: 0.10 g/L and 0.067 g/L; DCW mg/3 m1. [1]: 0.3 mg/3 m1 and 0.2 mg/3 m1; increased growth over glucose only culture ([2]; UTEX 572, 10 mM urea + 1% glucose): 76%; DCW [2, 8]: 0.467 g/L; DCW mg/3 m1. [2, 8]: 1.4 mg/3 m1
2 | CC(=O)[O-].[Na+] [acetate, sodium acetate] | ++ | ++ | ++ | + | + | + | + | + | + | – | – | – | –
3 | O=C[C@@H](O)[C@H](O)[C@H](O)CO [arabinose] | ++ | ++ | ++ | + | + | + | + | + | + | – | – | – | –
4 | O=C(CO)[C@@H](O)[C@H](O)[C@H](O)CO [fructose] | ++ | +++ | +++ | + | + | ++ | ++ | ++ | ++ | some growth | heterotrophic growth | growth | –
5 | O=C[C@H](O)[C@@H](O)[C@@H](O)[C@H](O)CO [galactose] | ++ | +++ | ++ | ++ | ++ | ++ | ++ | +++ | +++ | some growth | heterotrophic growth | growth | –
6 | OCC(O)CO [glycerol] | ++ | +++ | +++ | + | + | + | + | + | + | some growth | – | – | DCW [6, 9]: 0.273 g/L and 0.286 g/L; DCW mg/15 ml. [6, 9]: 4.1 mg/15 ml and 4.3 mg/15 ml; DCW [6, 10]: 0.22 g/L and 0.32 g/L; DCW mg/15 ml. [6, 10]: 3.3 mg/15 ml and 4.8 mg/15 ml; DCW [6, 11]: 0.24 g/L and 0.286 g/L; DCW mg/15 ml. [6, 11]: 4.3 mg/15 ml and 4.7 mg/15 ml; increased growth with glycerol ([6]; UTEX 2441, light, mixotrophic): 66%; DCW [7, 12]: 0.273 g/L and 0.206 g/L; DCW mg/15 ml. [7, 12]: 4.1 mg/15 ml and 3.1 mg/15 ml; DCW [7, 13]: 0.267 g/L and 0.20 g/L; DCW mg/15 ml. [7, 13]: 4.0 mg/15 ml and 3.0 mg/15 ml; DCW [7, 14]: 0.24 g/L and 0.293 g/L; DCW mg/15 ml. [7, 14]: 3.6 mg/15 ml and 4.4 mg/15 ml; difference in growth with or without glycerol ([7]; UTEX 572, light, mixotrophic): marginal difference
